≈ marks a conversion by molar mass, not a printed value. Bounds are passed on as bounds.

The GI50 is the concentration giving 50% growth inhibition. The MIC is the lowest concentration that inhibits growth of the organism. Usually IC50 stands for the concentration needed to halve the response being measured.

The first data set has as its system 3T3 cells. Kind of data set: Cell growth inhibition bioassay (sulforhodamine B). The class given is cell-based, mouse. To be noted: Mus musculus, NIH3T3; 48 h, SRB; read-out: GI50 in indicated cell line: 3T3. An outline of the steps:
(§1)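 Cells were exposed to compound alongside matched solvent controls, then stained with sulforhodamine B. Percent growth inhibition was calculated from dye absorbance against the control.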
For `COc1cc(/C=N\Nc2ncnc3sc4c(c23)CCCC4)cc(OC)c1O` [II-16], the GI50 was determined as 10.5 µg/mL (≈ 27.3 µM).
Still for that read-out and setting: with `COc1cc(/C=N\Nc2ncnc3sc4c(c23)CCCC4)cc(OC)c1OC` [II-14] the figure was 9 µg/mL (≈ 22.6 µM).

For another data set, the system named is M. tuberculosis MDR. Kind of data set: Anti-tuberculosis bioassay (tetrazolium microplate MIC). The class given is cell-based. The following applies: Mycobacterium tuberculosis, read-out: Mycobacterium MIC MDR.
As for `COc1cc(/C=N\Nc2ncnc3sc4c(c23)CCCC4)cc(OC)c1O` [II-16], the minimum inhibitory concentration (MIC) was more than 25 µg/mL.
On the same count and under the same terms, with `COc1cc(/C=N\Nc2ncnc3sc4c(c23)CCCC4)cc(OC)c1OC` [II-14] the figure was more than 25 µg/mL.

Test system in the next data set: not listed separately
In words: Toxicity to peritoneal macrophages (Trypan Blue count). In kind it is cell-based, BALB/C mouse. The following applies: BALB/C, mouse, Cytotoxicity Macrophages IC50.
The compound `COc1cc(/C=N\Nc2ncnc3sc4c(c23)CCCC4)cc(OC)c1O` [II-16] had a half-maximal inhibitory concentration (IC50) at 48 h of 46.4 µM.
Same read-out and setting: with `COc1cc(/C=N\Nc2ncnc3sc4c(c23)CCCC4)cc(OC)c1OC` [II-14] the figure was 3.6 µM.

Staying with this data set, now noted: BALB/C, mouse, IC50 Cytotoxicity Against Macrophages.
Consider `COc1cc(/C=N\Nc2ncnc3sc4c(c23)CCCC4)cc(OC)c1OC` [II-14], for which the IC50 at 48 h was more than 10 µM.

For another data set, the system named is axenic amastigotes of L. amazonensis (strain MHOM/BR/76/LTB-012).
Test: not given
The following applies: Table 8b.
On to `COc1cc(/C=N\Nc2ncnc3sc4c(c23)CCCC4)cc(OC)c1O` [II-16], for which the “Selectivity Index” value was 3.0.
Same read-out and setting: with `COc1cc(/C=N\Nc2ncnc3sc4c(c23)CCCC4)cc(OC)c1OC` [II-14] the figure was 1.2.

For the next data set, the system named is VERO cells. In words: Cell growth inhibition bioassay (sulforhodamine B). The class given is cell-based, African Green Monkey. The following applies: Chlorocebus sabaeus, Vero; 48 h, SRB; read-out: GI50 in indicated cell line: VERO. An outline of the steps: as §1
Turning to `COc1cc(/C=N\Nc2ncnc3sc4c(c23)CCCC4)cc(OC)c1O` [II-16], the 50% growth inhibitory concentration (GI50) was more than 62.5 µg/mL.
The same measure, in the same setting: with `COc1cc(/C=N\Nc2ncnc3sc4c(c23)CCCC4)cc(OC)c1OC` [II-14] the figure was 9.7 µg/mL (≈ 24.3 µM).

For another data set, the system named is axenic amastigotes of L. amazonensis (strain MHOM/BR/76/LTB-012). In words: microbe, parasite or virus in culture. To be noted: Leishmania amazonensis, read-out: IC50 Cytotoxicity Against Amastigotes.
With `COc1cc(/C=N\Nc2ncnc3sc4c(c23)CCCC4)cc(OC)c1O` [II-16], the IC50 was 21.9 µM.
For the compound `COc1cc(/C=N\Nc2ncnc3sc4c(c23)CCCC4)cc(OC)c1OC` [II-14], the IC50 was 10.5 µM.

The data set is the same for the next values; noted with them: Leishmania amazonensis, read-out: L. amazonensis IC50.
In the case of `COc1cc(/C=N\Nc2ncnc3sc4c(c23)CCCC4)cc(OC)c1O` [II-16], the IC50 turned out to be 15.7 µM.
On the same count and under the same terms, with `COc1cc(/C=N\Nc2ncnc3sc4c(c23)CCCC4)cc(OC)c1OC` [II-14] the figure was 2.9 µM.

The test system of the next data set is DU145 cells. In words: Cell growth inhibition bioassay (sulforhodamine B). To be noted: Homo sapiens, DU-145; 48 h, SRB; read-out: GI50 in indicated cell line: DU145. The class given is cell-based, human. In a few lines: (§2)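 SRB colorimetric read-out; % growth inhibition vs solvent control. Human lines: MCF-7 (breast adenocarcinoma), DU145 (prostate carcinoma), PC3 (prostate adenocarcinoma), H460 (large cell lung cancer).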
Take `COc1cc(/C=N\Nc2ncnc3sc4c(c23)CCCC4)cc(OC)c1O` [II-16]: the 50% growth inhibitory concentration (GI50) was 10.5 µg/mL (≈ 27.3 µM).
Same read-out and setting: with `COc1cc(/C=N\Nc2ncnc3sc4c(c23)CCCC4)cc(OC)c1OC` [II-14] the figure was 9 µg/mL (≈ 22.6 µM).

For the next data set, the system named is HT-29 cells. Kind of data set: Cell growth inhibition bioassay (sulforhodamine B). In kind it is cell-based, human. To be noted: Homo sapiens, HT-29; 48 h, SRB; read-out: GI50 in indicated cell line: HT-29. An outline of the steps:
as §1
Take `COc1cc(/C=N\Nc2ncnc3sc4c(c23)CCCC4)cc(OC)c1O` [II-16]: the GI50 was more than 62.5 µg/mL.
The same measure, in the same setting: with `COc1cc(/C=N\Nc2ncnc3sc4c(c23)CCCC4)cc(OC)c1OC` [II-14] the figure was 4.6 µg/mL (≈ 11.5 µM).

The next data set concerns H460 cells. In words: Cell growth inhibition bioassay (sulforhodamine B). The class given is cell-based, human. To be noted: Homo sapiens, NCI-H460; 48 h, SRB; read-out: GI50 in indicated cell line: H460. An outline of the steps: as §1
In the case of `COc1cc(/C=N\Nc2ncnc3sc4c(c23)CCCC4)cc(OC)c1O` [II-16], the GI50 is more than 62.5 µg/mL.
As for `COc1cc(/C=N\Nc2ncnc3sc4c(c23)CCCC4)cc(OC)c1OC` [II-14], the GI50 worked out at 11.3 µg/mL (≈ 28.4 µM).

The subject of the next data set is K562 cells. Kind of data set: Cell growth inhibition bioassay (sulforhodamine B). The class given is cell-based, human. To be noted: Homo sapiens, K562; 48 h, SRB; read-out: GI50 in indicated cell line: K562. An outline of the steps:
as §1
On to `COc1cc(/C=N\Nc2ncnc3sc4c(c23)CCCC4)cc(OC)c1O` [II-16], for which the 50% growth inhibitory concentration (GI50) was more than 62.5 µg/mL.
For the compound `COc1cc(/C=N\Nc2ncnc3sc4c(c23)CCCC4)cc(OC)c1OC` [II-14], the GI50 stood at 1.9 µg/mL (≈ 4.77 µM).

The subject of a further data set is M-14 cells. In words: Cell growth inhibition bioassay (sulforhodamine B). In kind it is cell-based, human. The following applies: Homo sapiens, M14; 48 h, SRB; read-out: GI50 in indicated cell line: M-14. In a few lines:
as §1
As to `COc1cc(/C=N\Nc2ncnc3sc4c(c23)CCCC4)cc(OC)c1O` [II-16], the GI50 was more than 62.5 µg/mL.
As for `COc1cc(/C=N\Nc2ncnc3sc4c(c23)CCCC4)cc(OC)c1OC` [II-14], the GI50 came to 6.2 µg/mL (≈ 15.6 µM).

A further data set deals with MCF-7 cells. Kind of data set: Cell growth inhibition bioassay (sulforhodamine B). In kind it is cell-based, human. To be noted: Homo sapiens, MCF7; 48 h, SRB; read-out: GI50 in indicated cell line: MCF-7. In a few lines:
as §2
As to `COc1cc(/C=N\Nc2ncnc3sc4c(c23)CCCC4)cc(OC)c1O` [II-16], the concentration for 50% growth inhibition (GI50) was more than 62.5 µg/mL.
`COc1cc(/C=N\Nc2ncnc3sc4c(c23)CCCC4)cc(OC)c1OC` [II-14]: the GI50 was found to be 4.2 µg/mL (≈ 10.5 µM).

The next data set has as its system M. tuberculosis H37Rv. Kind of data set: Anti-tuberculosis bioassay (tetrazolium microplate MIC). In kind it is cell-based. The following applies: Mycobacterium tuberculosis, read-out: Mycobacterium MIC H37Rv, Table 5.
As to `COc1cc(/C=N\Nc2ncnc3sc4c(c23)CCCC4)cc(OC)c1O` [II-16], the MIC is more than 25 µg/mL.
For the compound `COc1cc(/C=N\Nc2ncnc3sc4c(c23)CCCC4)cc(OC)c1OC` [II-14], the MIC was more than 25 µg/mL.

Another data set relates to Trypanosoma cruzi (Tulahuen C4). Kind of data set: In vitro anti-T. cruzi activity (β-galactosidase CPRG colorimetric assay in VERO monolayer). In kind it is cell-based. To be noted: Trypanosoma cruzi, TULAHUEN, Vero, 120 h, 10 μg/mL of each compound, 120 hours; read-out: T. cruzi Inhib. (%).
`COc1cc(/C=N\Nc2ncnc3sc4c(c23)CCCC4)cc(OC)c1O` [II-16]: the inhibition at 10 µg/mL is 58.6%.
`COc1cc(/C=N\Nc2ncnc3sc4c(c23)CCCC4)cc(OC)c1OC` [II-14]: the inhibition at 10 µg/mL is 2%.

The data set is the same for the next values; noted with them: Trypanosoma cruzi, TULAHUEN, Vero, Lab A; read-out: T. cruzi IC50 Lab A.
`COc1cc(/C=N\Nc2ncnc3sc4c(c23)CCCC4)cc(OC)c1O` [II-16]: the IC50 came to 4.9 µg/mL (≈ 12.7 µM).
The same measure, in the same setting: with `COc1cc(/C=N\Nc2ncnc3sc4c(c23)CCCC4)cc(OC)c1OC` [II-14] the figure was 3 µg/mL (≈ 7.53 µM).

The same data set, now with this note: Trypanosoma cruzi, TULAHUEN, Vero, Table 2; read-out: IC50 - T. cruzi.
In the case of `COc1cc(/C=N\Nc2ncnc3sc4c(c23)CCCC4)cc(OC)c1O` [II-16], the IC50 came to 8.74 µg/mL (≈ 22.7 µM).

The subject of a further data set is M. tuberculosis H37Rv. In words: Conventional aerobic (MABA) culture assay, luminescence MIC. The class given is cell-based, Mycobacterium tuberculosis. The following applies: Mycobacterium tuberculosis, 168 h; aerobic, 7 days, H37Rv.
For the compound `COc1cc(/C=N\Nc2ncnc3sc4c(c23)CCCC4)cc(OC)c1O` [II-16], the MIC was more than 100 µg/mL.
The same measure, in the same setting: with `COc1cc(/C=N\Nc2ncnc3sc4c(c23)CCCC4)cc(OC)c1OC` [II-14] the figure was more than 100 µg/mL.

Test system in a further data set: not listed separately
In words: Cytotoxicity on VERO cells (MTT), anti-T. cruzi study. The following applies: African green monkey, VERO cells, Cytotoxicity VERO Lab B, Lab B.
As to `COc1cc(/C=N\Nc2ncnc3sc4c(c23)CCCC4)cc(OC)c1OC` [II-14], the concentration for half-maximal inhibition (IC50) worked out at 11 µg/mL (≈ 27.6 µM).

The same data set, now with this note: African green monkey, VERO cells, IC50 - VERO Cytotoxicity, Table 2.
Compound `COc1cc(/C=N\Nc2ncnc3sc4c(c23)CCCC4)cc(OC)c1O` [II-16] yielded an IC50 of 124 µg/mL (≈ 323 µM).

Source of the values: US9061984B2 (University of Louisville Research Foundation, Inc., priority 2008, dated 2015).
